PMC7424068, “Design, Synthesis, and Biological Evaluation of Novel Thiazolidinone-Containing Quinoxaline-1,4-di-N-oxides as Antimycobacterial and Antifungal Agents” (Frontiers in Chemistry, 2020)
In brackets after ≈: the same amount, converted by molar mass. Read-outs that look alike come from different tables or passages of the source.

Columns and labels:
Mtb H37Rv (ATCC27294) = test: Antimycobacterial activity, microplate Alamar blue assay (MABA); type: cell-based, Mycobacterium tuberculosis; details: for antimycobacterial activity (in words): Mtb strain H37Rv; for MIC: Mycobacterium tuberculosis, Mtb H37Rv
VERO cell line = test: Cytotoxicity MTT assay; type: cell-based; details: Chlorocebus sabaeus, cytotoxicity in VERO cells, 72 h
Method: VERO cells (2 × 10^4 cells) were seeded into 96-well plates and incubated for 12 h. Serial dilutions of the compounds were mixed with the cell suspension in the plates. Both treated cells and blank and solvent controls were incubated for 72 h, followed by incubation with MTT (0.5 mg/mL) for another 4 h. The microplates were measured at 570 nm using a multimode reader (Infinite M200, Tecan). The percentage of viable cells was calculated as the mean with respect to the controls set to 100%. Triplicate wells were analyzed for each concentration. IC50 was defined as the concentration that reduced the viable cells by 50% compared to the untreated control cells. It was considered significant when the SI was more than 10.

C. albicans (ATCC90028) = test: Antifungal activity, broth microdilution; type: cell-based, Candida albicans; details: Candida albicans ATCC 90028, read-out: MIC
Method: (§1) All synthesized compounds and the positive control drugs amphotericin B and ketoconazole were tested for their in vitro antifungal activity. Antifungal activity was evaluated against four fungi, C. albicans (ATCC90028), C. tropicalis (ATCC7349), A. fumigatus (3.5352), and C. neoformans (2.3201), by broth microdilution according to the protocols from the NCCLS (Jiang et al., [2014]). Briefly, all tested compounds were dissolved in DMSO, and the solutions were diluted with fresh broth medium. All of the fungi-seeded broth (1 × 10^5 colony-forming units [CFU]/mL) were prepared in RPMI 1640 medium and added into the serially diluted drug solution. The tubes were incubated at 28°C, and the MIC (μg/mL) was recorded 72–96 h post-incubation. Broth control (without fungi), growth controls (with fungi and without drug), solvent (DMSO) control, and drug control for both test drugs and standard drugs were set under identical conditions. The minimum drug concentration in the tubes in which no apparent growth of the organism was observed represented the MIC of the compounds.

A. fumigatus (3.5352) = test: Antifungal activity, broth microdilution; type: cell-based; details: Aspergillus fumigatus; A. fumigatus 3.5352; read-out: MIC
Method: as §1

C. neoformans (2.3201) = test: Antifungal activity, broth microdilution; type: cell-based; details: Cryptococcus neoformans; C. neoformans 2.3201; read-out: MIC
Method: as §1

C. tropicalis (ATCC7349) = test: Antifungal activity, broth microdilution; type: cell-based; details: Candida tropicalis, C. tropicalis ATCC 7349, read-out: MIC
Method: as §1

[1] = system: TB-infected macrophage model; test: Macrophage assay (TB-infected macrophage model); type: cell-based, Mycobacterium tuberculosis
[2] = system: Candida albicans, Candida tropicalis, Aspergillus fumigatus, and Cryptococcus neoformans; test: Antifungal activity, broth microdilution, stated for the four fungi together; type: cell-based; details: C. albicans, C. tropicalis, A. fumigatus, C. neoformans together; read-out: MIC (antifungal, over the four fungi)
Method: as §1

[3] = repeated in Table 5 for the 3D-QSAR models, read-out: MIC
[4] = experimental pMIC, Table 5, read-out: pMIC exp (converted)

Compound	antimycobacterial activity (in words) (Mtb H37Rv (ATCC27294))	MIC (Mtb H37Rv (ATCC27294); MABA assay, read-out: MIC) [µg/mL]	MIC (Mtb H37Rv (ATCC27294); [3]) [µg/mL]	MIC (Mtb H37Rv (ATCC27294); [4]) [µM]	IC50 (VERO cell line) [µg/mL]	MIC (C. albicans (ATCC90028)) [µg/mL]	MIC (A. fumigatus (3.5352)) [µg/mL]	MIC (C. neoformans (2.3201)) [µg/mL]	MIC (C. tropicalis (ATCC7349)) [µg/mL]	melting point [°C]	EC90 ([1]; Mycobacterium tuberculosis, Macrophage, 168 h, concentration causing 90% reduction in residual mycobacterial growth after 7 days) [µg/mL]	EC99 ([1]; concentration causing 99% reduction in residual mycobacterial growth after 7 days) [µg/mL]	MIC [2] [µg/mL]
O=C1CSC(c2c[n+]([O-])c3ccccc3[n+]2[O-])N1c1ccccc1 (stereo not drawn) [2a, 2-(3′-phenyl-4′(5H)-thiazolidinone)-quinoxaline-1,4-di-N-oxide]	good antimycobacterial activity	6.25	6.25	18.5	144 (≈ 423 µM)	16 (≈ 47.1 µM)	32 (≈ 94.3 µM)	16 (≈ 47.1 µM)	8 (≈ 23.6 µM)	245 to 248			
O=C1CSC(c2c[n+]([O-])c3ccccc3[n+]2[O-])N1c1ccc(F)cc1 (stereo not drawn) [2d, 2-(3′-P-fluorophenyl-4′(5H)-thiazolidinone)-quinoxaline-1,4-di-N-oxide]	good antimycobacterial activity	3.13	3.13	8.77	123 (≈ 344 µM)	16 (≈ 44.8 µM)	32 (≈ 89.5 µM)	8 (≈ 22.4 µM)	8 (≈ 22.4 µM)	240 to 242			
O=C1CSC(c2c[n+]([O-])c3ccccc3[n+]2[O-])N1c1ccc(Cl)cc1 (stereo not drawn) [2e, 2-(3′-P-chlorophenyl-4′(5H)-thiazolidinone)-quinoxaline-1,4-di-N-oxide]	good antimycobacterial activity	≤ 3.13	3.13	8.39	116 (≈ 310 µM)	8 (≈ 21.4 µM)	32 (≈ 85.6 µM)	16 (≈ 42.8 µM)	8 (≈ 21.4 µM)	249 to 252			
Cc1ccc2c(c1)[n+]([O-])c(C1SCC(=O)N1c1ccc(F)cc1)c[n+]2[O-] (stereo not drawn) [2j, 7-CH3-2-(3′-P-fluorophenyl-4′(5H)-thiazolidinone)-quinoxaline-1,4-di-N-oxide]	good antimycobacterial activity	6.25	6.25	16.9	114 (≈ 306 µM)	16 (≈ 43.1 µM)	32 (≈ 86.2 µM)	16 (≈ 43.1 µM)	8 (≈ 21.5 µM)	243 to 245			
Cc1ccc2c(c1)[n+]([O-])c(C1SCC(=O)N1c1ccc(Cl)cc1)c[n+]2[O-] (stereo not drawn) [2k, 7-CH3-2-(3′-P-chlorophenyl-4′(5H)-thiazolidinone)-quinoxaline-1,4-di-N-oxide]	good antimycobacterial activity	≤ 3.13	3.13	8.09	102 (≈ 264 µM)	32 (≈ 82.5 µM)	32 (≈ 82.5 µM)	32 (≈ 82.5 µM)	16 (≈ 41.3 µM)	244 to 248			
O=C1CSC(c2c[n+]([O-])c3ccc(F)cc3[n+]2[O-])N1c1ccccc1 (stereo not drawn) [2q, 7-F-2-(3′-phenyl-4′(5H)-thiazolidinone)-quinoxaline-1,4-di-N-oxide]		6.25	6.25	17.5	126 (≈ 354 µM)	8 (≈ 22.4 µM)	16 (≈ 44.8 µM)	16 (≈ 44.8 µM)	4 (≈ 11.2 µM)	249 to 252			
O=C1CSC(c2c[n+]([O-])c3ccc(F)cc3[n+]2[O-])N1c1ccc(F)cc1 (stereo not drawn) [2t, 7-F-2-(3′-P-fluorophenyl-4′(5H)-thiazolidinone)-quinoxaline-1,4-di-N-oxide]	good antimycobacterial activity	1.56	1.56	4.16	101 (≈ 269 µM)	4 (≈ 10.7 µM)	4 (≈ 10.7 µM)	4 (≈ 10.7 µM)	2 (≈ 5.33 µM)	250 to 253	1.66 (≈ 4.42 µM)	5.25	2 to 4 (≈ 5.33 to 10.7 µM)
